Laboratory results reported in patent US8404679B2, “Pyrrolidine derivatives as NK2 receptor antagonists” (Hoffmann-La Roche Inc., priority 2008, dated 2013).

The molecules below were run against T1, human NK2 receptor (Homo sapiens, UniProt P21452) (assay: [3H]SR48968 competition binding assay). Settings: [3H]SR48968 displacement, membranes of CHO cells stably expressing recombinant human NK2 receptor; Ki from IC50 by Cheng-Prussoff.
T1 construct: purchased Perkin Elmer biosignal Inc. 6110510
T1 sequence (P21452 1-398): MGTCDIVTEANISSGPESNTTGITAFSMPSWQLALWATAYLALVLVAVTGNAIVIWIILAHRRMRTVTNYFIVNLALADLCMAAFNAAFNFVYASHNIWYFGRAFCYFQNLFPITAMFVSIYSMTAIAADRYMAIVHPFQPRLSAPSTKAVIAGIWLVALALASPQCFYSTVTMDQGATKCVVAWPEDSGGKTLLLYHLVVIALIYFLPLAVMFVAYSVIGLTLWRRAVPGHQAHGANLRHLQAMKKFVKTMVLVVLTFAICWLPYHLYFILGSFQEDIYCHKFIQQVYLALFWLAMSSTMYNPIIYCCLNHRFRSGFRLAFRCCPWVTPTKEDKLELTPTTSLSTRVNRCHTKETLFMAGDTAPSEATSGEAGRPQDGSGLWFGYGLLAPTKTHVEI
Summary of the method: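 Membranes from CHO cells stably expressing recombinant human NK2 were incubated 75 min at RT with [3H]SR48968 at its KD and 10 compound concentrations (0.0003–10 μM) in Tris-HCl pH 7.4, MnCl2, chymostatin, BSA. Filter-bound radioactivity was counted; Hill-fitted IC50 converted to Ki via Cheng-Prusoff.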

| SMILES | Ki [nM] |
| --- | --- |
| CN(C(=O)c1ccc(F)c(C#N)c1)[C@H]1CN(C(=O)C2CCN(C(=O)C3(C)CC3)CC2)C[C@@H]1c1ccc(Cl)c(Cl)c1 (racemic) [Example 109, 3-Cyano-N-{(3RS,4SR)-4-(3,4-dichloro-phenyl)-1-[1-(1-methyl-cyclopropanecarbonyl)-piperidine-4-carbonyl]-pyrrolidin-3-yl}-4-fluoro-N-methyl-benzamide] | 0.8 |
| COc1ccc(C(=O)N(C)[C@H]2CN(C(=O)C3CCN(CCC(F)(F)F)CC3)C[C@@H]2c2ccc(Cl)cc2)cc1C(F)(F)F (racemic) [Example 110, N-{(3RS,4SR)-4-(4-Chloro-phenyl)-1-[1-(3,3,3-trifluoro-propyl)-piperidine-4-carbonyl]-pyrrolidin-3-yl}-4-methoxy-N-methyl-3-trifluoromethyl-benzamide] | 0.8 |
| COc1ccc(C(=O)N(C)[C@H]2CN(C(=O)C3CCN(CCC(C)(C)C)CC3)C[C@@H]2c2ccc(Cl)cc2)cc1C(F)(F)F (racemic) [Example 111, N-{(3RS,4SR)-4-(4-Chloro-phenyl)-1-[1-(3,3-dimethyl-butyl)-piperidine-4-carbonyl]-pyrrolidin-3-yl}-4-methoxy-N-methyl-3-trifluoromethyl-benzamide] | 0.7 |
| CN(C(=O)CC1CCCC1)[C@H]1CN(C(=O)C2CCN(C(=O)C3(C)CC3)CC2)C[C@@H]1c1ccc(Cl)c(Cl)c1 (racemic) [Example 113, 2-Cyclopentyl-N-{(3RS,4SR)-4-(3,4-dichloro-phenyl)-1-[1-(1-methyl-cyclopropanecarbonyl)-piperidine-4-carbonyl]-pyrrolidin-3-yl}-N-methyl-acetamide] | 2.9 |
| CN(C(=O)CCC1CC1)[C@H]1CN(C(=O)C2CCN(C(=O)C3(C)CC3)CC2)C[C@@H]1c1ccc(Cl)c(Cl)c1 (racemic) [Example 114, 3-Cyclopropyl-N-{(3RS,4SR)-4-(3,4-dichloro-phenyl)-1-[1-(1-methyl-cyclopropanecarbonyl)-piperidine-4-carbonyl]-pyrrolidin-3-yl}-N-methyl-propionamide] | 17.2 |
| CN(C(=O)CC(C)(C)C)[C@H]1CN(C(=O)C2CCN(C(=O)C3(C)CC3)CC2)C[C@@H]1c1ccc(Cl)c(Cl)c1 (racemic) [Example 115, N-{(3RS,4SR)-4-(3,4-Dichloro-phenyl)-1-[1-(1-methyl-cyclopropanecarbonyl)-piperidine-4-carbonyl]-pyrrolidin-3-yl}-3,3,N-trimethyl-butyramide] | 23 |
| CC(C)C(C(=O)N(C)[C@H]1CN(C(=O)C2CCN(C(=O)C3(C)CC3)CC2)C[C@@H]1c1ccc(Cl)c(Cl)c1)c1ccc(F)cc1 (mixture of isomers) [Example 116, N-{(3RS,4SR)-4-(3,4-Dichloro-phenyl)-1-[1-(1-methyl-cyclopropanecarbonyl)-piperidine-4-carbonyl]-pyrrolidin-3-yl}-2-(4-fluoro-phenyl)-3,N-dimethyl-butyramide] | 49.7 |
| COc1ccc(C(=O)N(C)[C@H]2CN(C(=O)C3CCN(CC(C)(C)C)CC3)C[C@@H]2c2ccc(Cl)cc2)cc1C(F)(F)F (racemic) [Example 120, N-{(3RS,4SR)-4-(4-Chloro-phenyl)-1-[1-(2,2-dimethyl-propyl)-piperidine-4-carbonyl]-pyrrolidin-3-yl}-4-methoxy-N-methyl-3-trifluoromethyl-benzamide] | 0.8 |
| CCN1CCC(C(=O)N2C[C@H](c3ccc(Cl)cc3)[C@@H](N(C)C(=O)c3ccc(OC)c(C(F)(F)F)c3)C2)CC1 (racemic) [Example 121, N-[(3RS,4SR)-4-(4-Chloro-phenyl)-1-(1-ethyl-piperidine-4-carbonyl)-pyrrolidin-3-yl]-4-methoxy-N-methyl-3-trifluoromethyl-benzamide] | 5.1 |
| COc1ccc(C(=O)N[C@H]2CN(C(=O)C3CCN(C(=O)C4(C)CC4)CC3)C[C@@H]2c2ccc(Cl)cc2C)cc1C(F)(F)F (racemic) [Example 122, N-{(3RS,4SR)-4-(4-Chloro-2-methyl-phenyl)-1-[1-(1-methyl-cyclopropanecarbonyl)-piperidine-4-carbonyl]-pyrrolidin-3-yl}-4-methoxy-3-trifluoromethyl-benzamide] | 82 |
| CN(C(=O)CC1CCOCC1)[C@H]1CN(C(=O)C2CCN(C(=O)C3(C)CC3)CC2)C[C@@H]1c1ccc(Cl)c(Cl)c1 (racemic) [Example 124, N-{(3RS,4SR)-4-(3,4-Dichloro-phenyl)-1-[1-(1-methyl-cyclopropanecarbonyl)-piperidine-4-carbonyl]-pyrrolidin-3-yl}-N-methyl-2-(tetrahydro-pyran-4-yl)-acetamide] | 13 |
| CN(C(=O)C(C)(C)c1ccc(F)cc1)[C@H]1CN(C(=O)C2CCN(C(=O)C3(C)CC3)CC2)C[C@@H]1c1ccc(Cl)c(Cl)c1 (racemic) [Example 125, N-{(3RS,4SR)-4-(3,4-Dichloro-phenyl)-1-[1-(1-methyl-cyclopropanecarbonyl)-piperidine-4-carbonyl]-pyrrolidin-3-yl}-2-(4-fluoro-phenyl)-N-methyl-isobutyramide] | 67.9 |
| COc1ccc(C(=O)N(C)[C@H]2CN(C(=O)C3CCN(CCCSC)CC3)C[C@@H]2c2ccc(Cl)cc2)cc1C(F)(F)F (racemic) [Example 126, N-{(3RS,4SR)-4-(4-Chloro-phenyl)-1-[1-(3-methylsulfanyl-propyl)-piperidine-4-carbonyl]-pyrrolidin-3-yl}-4-methoxy-N-methyl-3-trifluoromethyl-benzamide] | 0.9 |
| COC1CCC(C(=O)N2C[C@H](c3ccc(Cl)c(Cl)c3)[C@@H](N(C)C(=O)Cc3ccc(F)cc3)C2)CC1 (mixture of isomers) [Example 127, N-[(3RS,4SR)-4-(3,4-Dichloro-phenyl)-1-(4-methoxy-cyclohexanecarbonyl)-pyrrolidin-3-yl]-2-(4-fluoro-phenyl)-N-methyl-acetamide] | 35 |

Results, then the molecule that gave them:

| Ki [nM] | SMILES |
| --- | --- |
| 0.1 | COc1ccc(C(=O)N(C)[C@H]2CN(C(=O)C3CCN(CCCS(C)(=O)=O)CC3)C[C@@H]2c2ccc(Cl)cc2)cc1C(F)(F)F (racemic) [Example 131, N-{(3RS,4SR)-4-(4-Chloro-phenyl)-1-[1-(3-methanesulfonyl-propyl)-piperidine-4-carbonyl]-pyrrolidin-3-yl}-4-methoxy-N-methyl-3-trifluoromethyl-benzamide] |
| 1.3 | COc1ccc(C(=O)N(C)[C@H]2CN(C(=O)C3CCN(C(=O)OC(C)(C)C)CC3)C[C@@H]2c2ccc(Cl)c(Cl)c2)cc1C(F)(F)F (racemic) [Example 132, 4-{(3SR,4RS)-3-(3,4-Dichloro-phenyl)-4-[(4-methoxy-3-trifluoromethyl-benzoyl)-methyl-amino]-pyrrolidine-1-carbonyl}-piperidine-1-carboxylic acid tert-butyl ester] |
| 0.2 | COc1ccc(C(=O)N(C)[C@H]2CN(C(=O)C3CCNCC3)C[C@@H]2c2ccc(Cl)c(Cl)c2)cc1C(F)(F)F (racemic) [Example 133, N-[(3RS,4SR)-4-(3,4-Dichloro-phenyl)-1-(piperidine-4-carbonyl)-pyrrolidin-3-yl]-4-methoxy-N-methyl-3-trifluoromethyl-benzamide] |
| 51.9 | CN(C(=O)Cc1ccc(F)cc1)[C@H]1CN(C(=O)c2ccc(N3CCOCC3)cc2)C[C@@H]1c1ccc(Cl)c(Cl)c1 (racemic) [Example 134, N-[(3RS,4SR)-4-(3,4-Dichloro-phenyl)-1-(4-morpholin-4-yl-benzoyl)-pyrrolidin-3-yl]-2-(4-fluoro-phenyl)-N-methyl-acetamide] |
| 85.4 | CN(C(=O)Cc1ccc(F)cc1)[C@H]1CN(C(=O)c2ccc(N3CCOCC3)nc2)C[C@@H]1c1ccc(Cl)c(Cl)c1 (racemic) [Example 135, N-[(3RS,4SR)-4-(3,4-Dichloro-phenyl)-1-(6-morpholin-4-yl-pyridine-3-carbonyl)-pyrrolidin-3-yl]-2-(4-fluoro-phenyl)-N-methyl-acetamide] |
| 0.5 | COc1ccc(C(=O)N(C)[C@H]2CN(C(=O)C3CCN(CC4CC4)CC3)C[C@@H]2c2ccc(Cl)c(Cl)c2)cc1C(F)(F)F (racemic) [Example 138, N-[(3RS,4SR)-1-(1-Cyclopropylmethyl-piperidine-4-carbonyl)-4-(3,4-dichloro-phenyl)-pyrrolidin-3-yl]-4-methoxy-N-methyl-3-trifluoromethyl-benzamide] |
| 0.6 | COc1ccc(C(=O)N(C)[C@H]2CN(C(=O)C3CCN(CCC(F)(F)F)CC3)C[C@@H]2c2ccc(Cl)c(Cl)c2)cc1C(F)(F)F (racemic) [Example 139, N-{(3RS,4SR)-4-(3,4-Dichloro-phenyl)-1-[1-(3,3,3-trifluoro-propyl)-piperidine-4-carbonyl]-pyrrolidin-3-yl}-4-methoxy-N-methyl-3-trifluoromethyl-benzamide] |
| 0.7 | CCS(=O)(=O)N1CCC(C(=O)N2C[C@H](c3ccc(Cl)c(Cl)c3)[C@@H](N(C)C(=O)c3ccc(OC)c(C(F)(F)F)c3)C2)CC1 (racemic) [Example 140, N-[(3RS,4SR)-4-(3,4-Dichloro-phenyl)-1-(1-ethanesulfonyl-piperidine-4-carbonyl)-pyrrolidin-3-yl]-4-methoxy-N-methyl-3-trifluoromethyl-benzamide] |
| 0.7 | COc1ccc(C(=O)N(C)[C@H]2CN(C(=O)C3CCN(S(=O)(=O)C4CC4)CC3)C[C@@H]2c2ccc(Cl)c(Cl)c2)cc1C(F)(F)F (racemic) [Example 141, N-[(3RS,4SR)-1-(1-Cyclopropanesulfonyl-piperidine-4-carbonyl)-4-(3,4-dichloro-phenyl)-pyrrolidin-3-yl]-4-methoxy-N-methyl-3-trifluoromethyl-benzamide] |
